The values that follow come from patent publication US12441768B2, “Compositions and methods for treating endometriosis” (EndoMet Biosciences, Inc., priority 2018, dated 2025).

For the test, the target named is T1, β-catenin (Homo sapiens, UniProt P35222).
T1 sequence (P35222 1-781): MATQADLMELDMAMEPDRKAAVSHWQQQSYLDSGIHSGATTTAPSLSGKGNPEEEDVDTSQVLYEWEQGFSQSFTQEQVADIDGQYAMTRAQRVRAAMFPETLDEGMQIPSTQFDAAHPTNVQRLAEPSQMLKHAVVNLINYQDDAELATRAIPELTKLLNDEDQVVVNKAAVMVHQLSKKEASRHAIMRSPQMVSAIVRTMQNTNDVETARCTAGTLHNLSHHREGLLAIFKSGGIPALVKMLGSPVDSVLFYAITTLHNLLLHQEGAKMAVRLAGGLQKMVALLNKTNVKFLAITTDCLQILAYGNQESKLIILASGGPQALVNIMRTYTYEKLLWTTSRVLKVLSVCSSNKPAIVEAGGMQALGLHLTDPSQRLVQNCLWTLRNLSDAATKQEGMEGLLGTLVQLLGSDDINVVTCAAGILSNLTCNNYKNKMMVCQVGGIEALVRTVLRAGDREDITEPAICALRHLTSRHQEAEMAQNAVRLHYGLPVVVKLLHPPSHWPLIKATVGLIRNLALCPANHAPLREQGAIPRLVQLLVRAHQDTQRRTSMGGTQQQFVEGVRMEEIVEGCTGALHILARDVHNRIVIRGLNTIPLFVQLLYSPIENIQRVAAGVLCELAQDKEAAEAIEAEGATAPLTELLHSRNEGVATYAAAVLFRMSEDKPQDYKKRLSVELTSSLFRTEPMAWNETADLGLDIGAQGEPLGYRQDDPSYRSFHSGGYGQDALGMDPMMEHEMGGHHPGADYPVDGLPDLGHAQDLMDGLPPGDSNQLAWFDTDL
As to the kind of experiment: KD50 measurement using competitive fluorescence polarization (FP) with labelled TCF4. Particulars: fluorescence polarization, β-catenin; for Kd: read-out: β-Cat FP KD. The test is classed as binding. Summed up:
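Tracer: labelled TCF4, 5 nM; protein 100 nM; RT incubation. Competitor dilution series 10 nM–30 uM. FP read ex 470 / em 520 nm. n = 3.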
(Fluorescence polarisation rises when a labelled molecule tumbles more slowly, as on binding a larger partner.)

Where a SMILES comes first, the peptide text is derived from it.

`CC[C@H](C)[C@H](NC(=O)[C@H](CO)NC(=O)[C@H](CCC(N)=O)NC(=O)[C@@H]1CCCN1C(=O)[C@H](Cc1c[nH]c2ccccc12)NC(C)=O)C(=O)N[C@@H](CC(C)C)C(=O)N[C@@H](CC(=O)O)C(=O)N[C@H]1CCCCNC(=O)C[C@@H](C(=O)N[C@H](C(=O)N[C@@H](Cc2c[nH]c3ccccc23)C(N)=O)C(C)C)NC(=O)[C@H](CCC(N)=O)NC(=O)[C@H](C2CCCCC2)NC(=O)[C@H](Cc2c[nH]cn2)NC1=O` [compound 462] (HELM PEPTIDE1{[ac].W.P.Q.S.I.L.D.K.H.[O=C([C@@H](N[*:1])C1CCCCC1)[*:2]].Q.D.V.W.[am]}$PEPTIDE1,PEPTIDE1,9:R3-13:R3$$$V2.0): the “β-Cat FP Hill slope” value was 0.76 and the dissociation constant (Kd) – broadly, a measure of binding affinity in units of concentration – was less than 400 nM. Turning to `CCCCCCCCCCCC(=O)N[C@@H](Cc1c[nH]c2ccccc12)C(=O)N1CCC[C@H]1C(=O)N[C@@H](CCC(N)=O)C(=O)N[C@@H](CO)C(=O)N[C@H](C(=O)N[C@@H](CC(C)C)C(=O)N[C@@H](CC(=O)O)C(=O)N[C@H]1CCCCNC(=O)C[C@@H](C(=O)N[C@H](C(=O)N[C@@H](Cc2c[nH]c3ccccc23)C(N)=O)C(C)C)NC(=O)[C@H](CCC(N)=O)NC(=O)[C@H](C2CCCCC2)NC(=O)[C@H](Cc2c[nH]cn2)NC1=O)[C@@H](C)CC` [compound 463] (HELM PEPTIDE1{[CCCCCCCCCCCC(=O)[*:2]].W.P.Q.S.I.L.D.K.H.[O=C([C@@H](N[*:1])C1CCCCC1)[*:2]].Q.D.V.W.[am]}$PEPTIDE1,PEPTIDE1,9:R3-13:R3$$$V2.0), the Kd is less than 400 nM. `CC[C@H](C)[C@@H]1NC(=O)[C@@H](NC(=O)[C@H](CCC(N)=O)NC(=O)[C@H](C)N(C)C(=O)[C@H](Cc2c[nH]c3ccccc23)NC(C)=O)CCCCNC(=O)CC[C@@H](C(=O)N[C@@H](Cc2c[nH]cn2)C(=O)N[C@H](C(=O)N[C@H]2CCC(=O)NCCCC[C@@H](C(N)=O)NC(=O)[C@H](Cc3c[nH]c4ccccc34)NC(=O)[C@H](C(C)C)NC(=O)[C@H](CC(=O)O)NC2=O)C2CCCCC2)NC(=O)[C@H](CC(=O)O)NC(=O)[C@H](CC(C)C)NC1=O` [compound 464] (HELM PEPTIDE1{[ac].W.[meA].Q.K.I.L.D.E.H.[O=C([C@@H](N[*:1])C1CCCCC1)[*:2]].E.D.V.W.K.[am]}$PEPTIDE1,PEPTIDE1,5:R3-9:R3|PEPTIDE1,PEPTIDE1,12:R3-16:R3$$$V2.0; bridges inferred): the “β-Cat FP Hill slope” value is given as 0.7. `CC[C@H](C)[C@H](NC(=O)[C@H](CO)NC(=O)[C@H](CCC(N)=O)NC(=O)[C@H](C)N(C)C(=O)[C@H](Cc1c[nH]c2ccccc12)NC(C)=O)C(=O)N[C@@H](CC(C)C)C(=O)N[C@@H](CC(=O)O)C(=O)N[C@H]1CCC(=O)NCCCC[C@@H](C(=O)N[C@H](C(=O)N[C@@H](Cc2c[nH]c3ccccc23)C(N)=O)C(C)C)NC(=O)[C@H](CCC(N)=O)NC(=O)[C@H](C2CCCCC2)NC(=O)[C@H](Cc2c[nH]cn2)NC1=O` [compound 466] (HELM PEPTIDE1{[ac].W.[meA].Q.S.I.L.D.E.H.[O=C([C@@H](N[*:1])C1CCCCC1)[*:2]].Q.K.V.W.[am]}$PEPTIDE1,PEPTIDE1,9:R3-13:R3$$$V2.0): the “β-Cat FP Hill slope” value turned out to be 0.72 and the dissociation constant Kd was less than 400 nM.

As for `CCCCCCCCCCCC(=O)N[C@@H](Cc1c[nH]c2ccccc12)C(=O)N(C)[C@@H](C)C(=O)N[C@@H](CCC(N)=O)C(=O)N[C@@H](CO)C(=O)N[C@H](C(=O)N[C@@H](CC(C)C)C(=O)N[C@@H](CC(=O)O)C(=O)N[C@H]1CCC(=O)NCCCC[C@@H](C(=O)N[C@H](C(=O)N[C@@H](Cc2c[nH]c3ccccc23)C(N)=O)C(C)C)NC(=O)[C@H](CCC(N)=O)NC(=O)[C@H](C2CCCCC2)NC(=O)[C@H](Cc2c[nH]cn2)NC1=O)[C@@H](C)CC` [compound 467] (HELM PEPTIDE1{[CCCCCCCCCCCC(=O)[*:2]].W.[meA].Q.S.I.L.D.E.H.[O=C([C@@H](N[*:1])C1CCCCC1)[*:2]].Q.K.V.W.[am]}$PEPTIDE1,PEPTIDE1,9:R3-13:R3$$$V2.0), the Kd was less than 400 nM. As to `CC[C@H](C)[C@H](NC(=O)[C@H](CO)NC(=O)[C@H](CCC(N)=O)NC(=O)[C@@H]1CCCN1C(=O)[C@H](Cc1c[nH]c2ccccc12)NC(C)=O)C(=O)N[C@@H](CC(C)C)C(=O)N[C@@H](CC(=O)O)C(=O)N[C@H]1CCC(=O)NCCCC[C@@H](C(=O)N[C@H](C(=O)N[C@@H](Cc2c[nH]c3ccccc23)C(N)=O)C(C)C)NC(=O)[C@H](CCC(N)=O)NC(=O)[C@H](C2CCCCC2)NC(=O)[C@H](Cc2c[nH]cn2)NC1=O` [compound 468] (HELM PEPTIDE1{[ac].W.P.Q.S.I.L.D.E.H.[O=C([C@@H](N[*:1])C1CCCCC1)[*:2]].Q.K.V.W.[am]}$PEPTIDE1,PEPTIDE1,9:R3-13:R3$$$V2.0), the “β-Cat FP Hill slope” value is recorded as 0.86 and the dissociation constant (Kd) is less than 400 nM.

As to `CCCCCCCCCCCC(=O)N[C@@H](Cc1c[nH]c2ccccc12)C(=O)N1CCC[C@H]1C(=O)N[C@@H](CCC(N)=O)C(=O)N[C@@H](CO)C(=O)N[C@H](C(=O)N[C@@H](CC(C)C)C(=O)N[C@@H](CC(=O)O)C(=O)N[C@H]1CCC(=O)NCCCC[C@@H](C(=O)N[C@H](C(=O)N[C@@H](Cc2c[nH]c3ccccc23)C(N)=O)C(C)C)NC(=O)[C@H](CCC(N)=O)NC(=O)[C@H](C2CCCCC2)NC(=O)[C@H](Cc2c[nH]cn2)NC1=O)[C@@H](C)CC` [compound 469] (HELM PEPTIDE1{[CCCCCCCCCCCC(=O)[*:2]].W.P.Q.S.I.L.D.E.H.[O=C([C@@H](N[*:1])C1CCCCC1)[*:2]].Q.K.V.W.[am]}$PEPTIDE1,PEPTIDE1,9:R3-13:R3$$$V2.0), the Kd was less than 400 nM. For `CC[C@H](C)[C@H](NC(=O)[C@H](CO)NC(=O)[C@H](CCC(N)=O)NC(=O)[C@H](C)N(C)C(=O)[C@H](Cc1c[nH]c2ccccc12)NC(C)=O)C(=O)N[C@@H](CC(C)C)C(=O)N[C@@H](CC(=O)O)C(=O)N[C@H]1CCC(=O)NCCCC[C@@H](C(=O)N[C@H](C(=O)N[C@@H](Cc2c[nH]c3ccccc23)C(=O)NCC(N)=O)C(C)C)NC(=O)[C@H](CCC(N)=O)NC(=O)[C@H](C2CCCCC2)NC(=O)[C@H](Cc2c[nH]cn2)NC1=O` [compound 470] (HELM PEPTIDE1{[ac].W.[meA].Q.S.I.L.D.E.H.[O=C([C@@H](N[*:1])C1CCCCC1)[*:2]].Q.K.V.W.G.[am]}$PEPTIDE1,PEPTIDE1,9:R3-13:R3$$$V2.0), the “β-Cat FP Hill slope” value was found to be 0.81 and the dissociation constant (Kd) was less than 400 nM. For the compound `CCCCCCCCCCCC(=O)N[C@@H](Cc1c[nH]c2ccccc12)C(=O)N(C)[C@@H](C)C(=O)N[C@@H](CCC(N)=O)C(=O)N[C@@H](CO)C(=O)N[C@H](C(=O)N[C@@H](CC(C)C)C(=O)N[C@@H](CC(=O)O)C(=O)N[C@H]1CCC(=O)NCCCC[C@@H](C(=O)N[C@H](C(=O)N[C@@H](Cc2c[nH]c3ccccc23)C(=O)NCC(N)=O)C(C)C)NC(=O)[C@H](CCC(N)=O)NC(=O)[C@H](C2CCCCC2)NC(=O)[C@H](Cc2c[nH]cn2)NC1=O)[C@@H](C)CC` [compound 471] (HELM PEPTIDE1{[CCCCCCCCCCCC(=O)[*:2]].W.[meA].Q.S.I.L.D.E.H.[O=C([C@@H](N[*:1])C1CCCCC1)[*:2]].Q.K.V.W.G.[am]}$PEPTIDE1,PEPTIDE1,9:R3-13:R3$$$V2.0), the Kd is less than 400 nM.
